Measurements from patent US6008189A, “Intravaginal preparation containing physiologically active peptide” (Teikoku Seiyaku Kabushiki Kaisha, priority 1993, dated 1999).

Experiments:
Format in all cases: in vivo, rat
[1] = system: Ovariectomized female Wistar rats; assay: Experiment 1: serum calcium reduction after intravaginal suppository, sucrose fatty acid ester plus citric acid versus each alone; details: 20 μg intravaginal
Method: To the mixture was added a commercially available base for intravaginal preparation; Witepsol S-55 (which is prepared from Witepsol E-85 so as to give a final intravaginal suppository having a melting point of 36.5° C., manufactured by Hils Co., Ltd., former Diamit Novel Co., Ltd) which was homogenized by previously warming and stirring thereof so as to give an intravaginal suppository with the total weight of 5.00 g. […] The mixture was poured into a tube (inside diameter: about 3 mm) made of teflon at about 40° C., cooled to solidify, and taken out from the tube. The solidified mixture was cut into pieces (weight: 50 mg) to give intravaginal suppositories for rats containing human calcitonin (20 μg/each). There were also obtained two kinds of intravaginal suppositories prepared by adding citric acid (50 mg) only, and prepared by adding a sucrose fatty acid ester (100 mg) only, likewise. There were obtained intravaginal suppositories containing only human calcitonin without citric acid nor a sucrose fatty acid ester, likewise, which are used as control.
(§1) An intravaginal suppository was administered into the rat's vagina, and the blood was collected periodically (2, 4 and 6 hours after administration of the test preparation).
(§2) The serum was separated, and the calcium level in the serum was determined by using a kit for determination of calcium (Calcium C Test Wako; manufactured by Wako Pure Chemical Industries, Ltd.) (n=3).

[2] = system: Ovariectomized female Wistar rats; assay: Experiment 2: serum calcium reduction, effect of various suppository bases; details: S-970 and citric acid, 20 μg intravaginal
Method: as §1, §2
(§3) In the same manner as in Experiment 1, each intravaginal suppository was administered to the rat's vagina, and the blood was collected periodically (2, 4 and 6 hours after administration of intravaginal suppository), and the calcium level in the serum thereof was determined (n=4).

[3] = system: Ovariectomized female Wistar rats; assay: Experiment 3: serum calcium reduction, effect of various sucrose fatty acid esters; details: with citric acid, 20 μg intravaginal
Method: as §1, §2
In the same manner, there were prepared various sucrose fatty acid esters having the same HLB value but being combined with a different fatty acid (Table B), and four kinds of intravaginal suppositories for rats were prepared by using each 100 mg of sucrose fatty acid ester.
as §3

[4] = system: Ovariectomized female Wistar rats; assay: Experiment 4: serum calcium reduction, effect of sucrose fatty acid ester concentration; details: sucrose fatty acid ester (S-970) 2 w/w % of suppository; citric acid 100 mg per 5.00 g; 20 μg intravaginal; 2 hr
Method: as §1, §2
Human calcitonin (2 mg) was precisely measured, and thereto were added citric acid (100 mg) and Ryoto-Sugar Ester S-970 (50 mg, 100 mg or 400 mg), and the mixture was mixed well.
In the same manner as in Experiment 1, each intravaginal suppository was administered to the rat's vagina, and the blood was collected periodically (2 and 4 hours after administration of intravaginal suppository), and the calcium level in the serum thereof was determined (n=3).

[5] = system: Ovariectomized female Wistar rats; assay: Experiment 5: serum calcium reduction, sucrose fatty acid ester with various organic acids; details: 20 μg intravaginal
Method: as §1, §2
In the same manner as in Experiment 1, each intravaginal suppository was administered to the rat's vagina, and the blood was collected periodically (2, 4 and 6 hours after administration of intravaginal suppository), and the calcium level in the serum thereof was determined (n=5).

[6] = system: Ovariectomized female Wistar rats; assay: Experiment 6: serum calcium reduction, effect of organic acid concentration; details: pH 3.5, S-970 100 mg per 5.00 g, 20 μg intravaginal
Method: as §1, §2
(§4) In the same manner as in Experiment 1, each intravaginal suppository was administered to the rat's vagina, and the blood was collected periodically (2, 4 and 6 hours after administration of intravaginal suppository), and the calcium level in the serum thereof was determined (n=3).

[7] = system: Ovariectomized female Wistar rats; assay: Experiment 7: serum calcium reduction, effect of pH of the solution in the suppository; details: citric acid and S-970, 20 μg intravaginal
Method: as §1, §2, §4

Question: Which results are given for Human calcitonin?
Answer: Reduction rate (%) of calcium level in the serum ([1]; Control: suppository with human calcitonin only, no citric acid nor ester, 2 hr): 2.6%; Reduction rate (%) of calcium level in the serum ([1]; Control: suppository with human calcitonin only, no citric acid nor ester, 4 hr): 2.2%; Reduction rate (%) of calcium level in the serum ([1]; Control: suppository with human calcitonin only, no citric acid nor ester, 6 hr): 3.8%; Reduction rate (%) of calcium level in the serum ([1]; suppository with citric acid only, 2 hr): 9.5%; Reduction rate (%) of calcium level in the serum ([1]; suppository with citric acid only, 4 hr): 8.0%; Reduction rate (%) of calcium level in the serum ([1]; suppository with citric acid only, 6 hr): 5.7%; Reduction rate (%) of calcium level in the serum ([2]; base Cacao butter, 6 hr): 8.3%; Reduction rate (%) of calcium level in the serum ([2]; base Witepsol S-55, 6 hr): 13.0%; Reduction rate (%) of calcium level in the serum ([2]; base Witepsol W-35, 2 hr): 6.6%; Reduction rate (%) of calcium level in the serum ([3]; Ryoto-Sugar Ester (S-570), HLB 5, stearic acid, 6 hr): 12.0%; Reduction rate (%) of calcium level in the serum ([3]; Ryoto-Sugar Ester L-595 + L-1695 3:2, HLB 9, lauric acid, 2 hr): 11.0%; Reduction rate (%) of calcium level in the serum ([3]; Ryoto-Sugar Ester L-595 + L-1695 3:2, HLB 9, lauric acid, 6 hr): 9.7%; Reduction rate (%) of calcium level in the serum ([3]; Ryoto-Sugar Ester P-070 + P-1670 4:5, HLB 9, palmitic acid, 2 hr): 8.2%; Reduction rate (%) of calcium level in the serum ([3]; Ryoto-Sugar Ester S-370 + S-1670 5:6, HLB 9, stearic acid, 2 hr): 6.9%; Reduction rate (%) of calcium level in the serum ([3]; Ryoto-Sugar Ester S-970 1:0 (control), HLB 9, stearic acid, 2 hr (Table 4)): 6.3%; Reduction rate (%) of calcium level in the serum ([3]; Ryoto-Sugar Ester S-970 1:0 (control), HLB 9, stearic acid, 6 hr (Table 4)): 11.0%; Reduction rate (%) of calcium level in the serum [4]: 8.0%; Reduction rate (%) of calcium level in the serum ([5]; organic acid Citric acid (pH 4) with Ryoto-Sugar Ester R-970, 6 hr): 8.4%; Reduction rate (%) of calcium level in the serum ([5]; organic acid Lactic acid (pH 4) with Ryoto-Sugar Ester R-970, 2 hr): 17.0%; Reduction rate (%) of calcium level in the serum ([5]; organic acid Lactic acid (pH 4) with Ryoto-Sugar Ester R-970, 6 hr): 5.4%; Reduction rate (%) of calcium level in the serum ([5]; organic acid Malic acid (pH 4) with Ryoto-Sugar Ester R-970, 4 hr): 13.0%; Reduction rate (%) of calcium level in the serum ([5]; organic acid Malic acid (pH 4) with Ryoto-Sugar Ester R-970, 6 hr): 7.0%; Reduction rate (%) of calcium level in the serum ([5]; organic acid Tartaric acid (pH 4) with Ryoto-Sugar Ester R-970, 4 hr): 8.0%; Reduction rate (%) of calcium level in the serum ([5]; organic acid Tartaric acid (pH 4) with Ryoto-Sugar Ester R-970, 6 hr): 3.4%; Reduction rate (%) of calcium level in the serum ([6]; citric acid 1 w/w % of suppository, 6 hr): 9.2%; Reduction rate (%) of calcium level in the serum ([6]; citric acid 2 w/w % of suppository, 6 hr): 8.2%; Reduction rate (%) of calcium level in the serum ([6]; citric acid 5 w/w % of suppository, 6 hr): 7.5%; Reduction rate (%) of calcium level in the serum ([6]; citric acid 10 w/w % of suppository, 4 hr): 19.0%; Reduction rate (%) of calcium level in the serum ([6]; citric acid 10 w/w % of suppository, 6 hr): 5.0%; Reduction rate (%) of calcium level in the serum ([7]; pH of the solution in suppository 3.0, 2 hr): 11.0%; Reduction rate (%) of calcium level in the serum ([7]; pH of the solution in suppository 3.0, 4 hr): 22.0%; Reduction rate (%) of calcium level in the serum ([7]; pH of the solution in suppository 3.0, 6 hr): 8.7%; Reduction rate (%) of calcium level in the serum ([7]; pH of the solution in suppository 3.5, 2 hr): 9.4%; Reduction rate (%) of calcium level in the serum ([7]; pH of the solution in suppository 3.5, 6 hr): 8.8%; Reduction rate (%) of calcium level in the serum ([7]; pH of the solution in suppository 4.0, 2 hr): 9.4%; Reduction rate (%) of calcium level in the serum ([7]; pH of the solution in suppository 4.5, 2 hr): 9.5%; Reduction rate (%) of calcium level in the serum ([7]; pH of the solution in suppository 4.5, 6 hr): 9.1%; Reduction rate (%) of calcium level in the serum ([7]; pH of the solution in suppository 5.0, 6 hr): 2.7%; Reduction rate (%) of calcium level in the serum ([7]; pH of the solution in suppository 5.5, 2 hr): 8.1%; Reduction rate (%) of calcium level in the serum ([7]; pH of the solution in suppository 5.5, 6 hr): 4.3%
